Data taken from patent publication US6844353B2, “Fungicidal properties of sampangine and its analogs to agriculturally important fungal plant pathogens” (The United States of America as represented by the …, priority 2003, dated 2005).

How the values were obtained:
Experiment in all cases: 96-well microtiter plate assay, fungal growth inhibition
B. cinerea = assay type: cell-based, Botrytis cinerea; conditions: B. cinerea
Source text: (§1) Pathogen production. Isolates of Colletotrichum acutatum Simmonds, Colletotrichum fragariae Brooks, and Colletotrichum gloeosporioides (Penz.) Penz. & Sacc. in Penz. were obtained from B. J. Smith, USDA, ARS, Small Fruit Research Station, Poplarville, Miss. Colletotrichum fragariae (isolate CF63), C. acutatum (isolate CAGoff), and C. gloeosporioides (isolate CG162) were used for all pathogen and bioautography studies. Isolate CF63 is one of the most virulent isolates at infecting strawberry plants and inducing both crown and fruit rot (Smith and Black, 1990). CF63, CAGoff, and CG162 were used as standard test isolates because of our extensive knowledge of these isolates and their known fungicide sensitivity profiles in both bioautography and microtiter formats. The three Colletotrichum species were isolated from strawberry (Fragaria x ananassa Duchesne). Botrytis cinerea Pers.: Fr, was isolated from commercial grape (Vitis vinifera L.) and Fusarium oxysporum Schlechtend: Fr from orchid (Cynoches sp.). Phomopsis viticola (Sacc.) and P. obscurans (Ellis & Everh.) Sutton were from Mike A. Ellis, Ohio State University, Wooster, Ohio. Fungi were grown on potato-dextrose agar (PDA, Difco, Detroit, Mich.) in 9 cm petri dishes and incubated in a growth chamber at 24±2° C. and under cool-white fluorescent lights ([…]·m^−2·sec^−1 light) with 12 hour photoperiod.
(§2) Inoculum preparation. Conidia were harvested from 7-10 day-old cultures by flooding plates with 5 mL of sterile distilled water and dislodging conidia by softly brushing the colonies with an L-shaped glass rod. Conidial suspensions were filtered through sterile miracloth (Calbiochem-Novabiochem Corp., La Jolla, Calif.) to remove mycelia. Conidia concentrations were determined photometrically, from a standard curve based on the percent of transmittance (% T) at 625 nm and suspensions were then adjusted with sterile distilled water to a concentration of 1.0×10^6 conidia/mL.
(§3) Microtiter assay. A standardized 96-well microtiter plate assay developed for discovery of natural product fungicidal agents was used to evaluate naturally occurring antifungal agents from Macaranga monanara. A 96-well microtiter assay was used to determine sensitivity of B. cinerea, C. acutatum, C. fragariae, C. gloeosporioides, F. oxysporum, Phomopsis viticola, and P. obscurans to the various antifungal agents in comparison with known fungicidal standards. Vinclozolin, captan, and thiabendazole, which represent three different modes of action, were used as standards in this experiment. Each fungus was challenged in a dose-response format using test compounds where the final treatment concentrations were 0.3, 3.0 and 30.0 μM. Microtiter plates (Nunc MicroWell, untreated; Roskilde, Denmark) were covered with a plastic lid and incubated in a growth chamber as described previously for fungal growth. Growth was then evaluated by measuring absorbance of each well at 620 nm using a microplate photometer (Packard Spectra Count, Packard Instrument Co., Downers Grove, Ill.). Microtiter plates (Nunc MicroWell, untreated; Roskilde, Denmark) were covered with a plastic lid and incubated in a growth chamber at 24±1° C. and 12 hour photoperiod under 60±5 μmol light. Growth was then evaluated by measuring absorbance of each well at 620 nm using a microplate photometer (Packard Spectra Count, Packard Instrument Co., Downers Grove, Ill.).
(§4) Microbioassy Experimental Design. Chemical sensitivity each of B. cinerea, C. acutatum, C. fragariae, C. gloeosporiodes, F. oxysporum, Phomopsis viticola, and P. obscurans was evaluated using 96-well plate microbioassay format. Each chemical was evaluated in duplicate at each dose (0.3, 3.0 and 30.0 μM). […]

F. oxysporum = assay type: cell-based, Fusarium oxysporum; conditions: F. oxysporum
Source text: as §1, §2, §3, §4

C. gloeosporioides = assay type: cell-based, Colletotrichum gloeosporioides; conditions: C. gloeosporioides
Source text: as §1, §2, §3, §4

C. fragariae = assay type: cell-based, Colletotrichum fragariae; conditions: C. fragariae
Source text: as §1, §2, §3, §4

C. acutatum = assay type: cell-based, Colletotrichum acutatum; conditions: C. acutatum
Source text: as §1, §2, §3, §4

SMILES | Percent inhibition−Percent Stimulation±SEM (B. cinerea; 0.3 μM, 48 hrs) | Percent inhibition−Percent Stimulation±SEM (B. cinerea; 0.3 μM, 72 hrs) | Percent inhibition−Percent Stimulation±SEM (B. cinerea; 3.0 μM, 48 hrs) | Percent inhibition−Percent Stimulation±SEM (B. cinerea; 3.0 μM, 72 hrs) | Percent inhibition−Percent Stimulation±SEM (B. cinerea; 30 μM, 48 hrs) | Percent inhibition−Percent Stimulation±SEM (B. cinerea; 30 μM, 72 hrs) | Percent inhibition−Percent Stimulation±SEM (F. oxysporum; 0.3 μM, 48 hrs) | Percent inhibition−Percent Stimulation±SEM (F. oxysporum; 0.3 μM, 72 hrs) | Percent inhibition−Percent Stimulation±SEM (F. oxysporum; 3.0 μM, 48 hrs) | Percent inhibition−Percent Stimulation±SEM (F. oxysporum; 3.0 μM, 72 hrs) | Percent inhibition−Percent Stimulation±SEM (F. oxysporum; 30 μM, 48 hrs) | Percent inhibition−Percent Stimulation±SEM (F. oxysporum; 30 μM, 72 hrs) | Percent inhibition−Percent Stimulation±SEM (C. gloeosporioides; 0.3 μM, 48 hrs) | Percent inhibition−Percent Stimulation±SEM (C. gloeosporioides; 0.3 μM, 72 hrs) | Percent inhibition−Percent Stimulation±SEM (C. gloeosporioides; 3.0 μM, 48 hrs) | Percent inhibition−Percent Stimulation±SEM (C. gloeosporioides; 3.0 μM, 72 hrs) | Percent inhibition−Percent Stimulation±SEM (C. gloeosporioides; 30 μM, 48 hrs) | Percent inhibition−Percent Stimulation±SEM (C. gloeosporioides; 30 μM, 72 hrs) | Percent inhibition−Percent Stimulation±SEM (C. fragariae; 0.3 μM, 48 hrs) | Percent inhibition−Percent Stimulation±SEM (C. fragariae; 0.3 μM, 72 hrs) | further results
O=C1c2ccccc2-c2nccc3c(Br)cnc1c23 [4-bromosampangine] | −41.1 ± 9.4% | −22.6 ± 13.7% | −59.2 ± 6.7% | −38.8 ± 9.4% | −29.7 ± 9.7% | 2.5 ± 8.9% | −20.4 ± 4.6% | −2.8 ± 1.9% | −42.3 ± 4.5% | −14.0 ± 2.1% | −25.8 ± 2.6% | −9.1 ± 3.0% | −100.0 ± 1.5% | −99.0 ± 0.6% | −98.9 ± 0.5% | −99.1 ± 0.4% | −96.0 ± 1.4% | −99.7 ± 0.4% | −46.3 ± 5.0% | −15.2 ± 8.2% | Percent inhibition−Percent Stimulation±SEM (C. fragariae; 3.0 μM, 48 hrs): −87.3 ± 2.0%; Percent inhibition−Percent Stimulation±SEM (C. fragariae; 3.0 μM, 72 hrs): −45.8 ± 5.6%; Percent inhibition−Percent Stimulation±SEM (C. fragariae; 30 μM, 48 hrs): −55.9 ± 7.1%; Percent inhibition−Percent Stimulation±SEM (C. fragariae; 30 μM, 72 hrs): −26.7 ± 7.3%; Percent inhibition−Percent Stimulation±SEM (C. acutatum; 0.3 μM, 48 hrs): −23.3 ± 8.0%; Percent inhibition−Percent Stimulation±SEM (C. acutatum; 0.3 μM, 72 hrs): −7.1 ± 6.3%; Percent inhibition−Percent Stimulation±SEM (C. acutatum; 3.0 μM, 48 hrs): −73.4 ± 6.8%; Percent inhibition−Percent Stimulation±SEM (C. acutatum; 3.0 μM, 72 hrs): −24.9 ± 8.7%; Percent inhibition−Percent Stimulation±SEM (C. acutatum; 30 μM, 48 hrs): −33.4 ± 6.9%; Percent inhibition−Percent Stimulation±SEM (C. acutatum; 30 μM, 72 hrs): −10.5 ± 6.7%
O=C1c2ccccc2-c2nccc3c2c1nc1ccccc13 [Benzo[4,5]sampangine, benzo[4,5]sampangine] | −70.2 ± 5.8% | −55.2 ± 8.1% | −78.0 ± 3.6% | −46.7 ± 10.2% | −99.2 ± 19.4% | −22.8 ± 14.7% | −48.2 ± 4.4% | −17.1 ± 2.0% | −77.7 ± 5.7% | −27.2 ± 6.2% | −57.9 ± 3.2% | −27.2 ± 1.9% | −100.0 ± 1.0% | −100.0 ± 0.3% | −98.6 ± 1.1% | −99.7 ± 0.4% | −100.0 ± 1.8% | −100.0 ± 0.9% | −38.4 ± 6.1% | −19.8 ± 7.7% | Percent inhibition−Percent Stimulation±SEM (C. fragariae; 3.0 μM, 48 hrs): −72.4 ± 8.5%; Percent inhibition−Percent Stimulation±SEM (C. fragariae; 3.0 μM, 72 hrs): −54.7 ± 11.2%; Percent inhibition−Percent Stimulation±SEM (C. fragariae; 30 μM, 48 hrs): −52.9 ± 6.5%; Percent inhibition−Percent Stimulation±SEM (C. fragariae; 30 μM, 72 hrs): −29.4 ± 6.8%; Percent inhibition−Percent Stimulation±SEM (C. acutatum; 0.3 μM, 48 hrs): −30.5 ± 10.2%; Percent inhibition−Percent Stimulation±SEM (C. acutatum; 0.3 μM, 72 hrs): −25.9 ± 8.0%; Percent inhibition−Percent Stimulation±SEM (C. acutatum; 3.0 μM, 48 hrs): −74.2 ± 6.3%; Percent inhibition−Percent Stimulation±SEM (C. acutatum; 3.0 μM, 72 hrs): −46.2 ± 5.2%; Percent inhibition−Percent Stimulation±SEM (C. acutatum; 30 μM, 48 hrs): −57.0 ± 10.0%; Percent inhibition−Percent Stimulation±SEM (C. acutatum; 30 μM, 72 hrs): −38.9 ± 5.2%
